{
  "source": "patent US8697390B2",
  "about": "“Method and kit for examination of cells using N-(9-acridinyl) maleimide (NAM) or using 7-diethylamino-3-((4′-iodacetyl)amino)phenyl)-4-methylkcoumarin (CPI)” (ChemoMetec A/S, priority 2008, dated 2014)",
  "key": {"[1]": {"system": "Jurkat (JM) cells", "test": "NAM/PI staining to determine viability of proliferating Jurkat cells (fluorescence microscopy)", "format": "cell-based", "conditions": "99% viable, 10 μL NAM (100 μg/mL DMSO) in 90 μL cells, UV band pass filter", "protocol": "Jurkat (JM) cells were grown at 37° C. in a humidified air atmosphere with 5% CO2 in RPMI (Invitrogen, #61870) supplemented with 10% heat-inactivated fetal bovine serum (Invitrogen, #10108-165). 90 μL proliferating Jurkat cells (cell density 1.2×10^6, 99% viable determined using the NC-100 NucleoCounter system following the manufacturer's (ChemoMetec A/S) protocol) were added 10 μL NAM (N-(9-acridinyl)maleimide, Sigma, #01665, CAS no. 49759-20-8) dissolved in DMSO (100 μg NAM pr. mL DMSO) and mixed by pipetting. Cells were loaded into a NucleoCassette, containing the DNA stain propidium iodide (PI). The cells were investigated using an Olympus IX50 fluorescent microscope, and images were captured using a Lumenera CCD camera and in-house developed software. PI and NAM fluorescence were detected using, respectively, U-MWG2 (green long pass: 510-550 nm) and U-MNUA2 (UV band pass, 330-385 nm) filter cubes (Olympus)."}, "[2]": {"system": "Drosophila S2 cells", "test": "NAM/PI staining to determine viability of Drosophila S2 cells (fluorescence microscopy)", "format": "cell-based, Drosophila melanogaster", "conditions": "99% viable, diluted 10 times in PBS, 10 μg/mL NAM", "protocol": "(Drosophila melanogaster Schneider line-2 (S2) cells were originally derived from late embryonic stage Drosophila embryos.) Drosophila S2 cells were grown at 28° C. without shaking in Schneider's Drosophila medium (Invitrogen, #21720) supplemented with 10% heat-inactivated fetal bovine serum (Invitrogen, #10108-165). S2 cells (cell density 1.7×10^7, 99% viable determined using the YC-100 NucleoCounter system with diploid settings following the manufacturer's (ChemoMetec) protocol) were diluted 10 times in PBS and stained with 10 μg/mL NAM (Sigma, #01665). Cells were loaded into a NucleoCassette, containing the DNA stain propidium iodide (PI). The cells were investigated using an Olympus IX50 fluorescent microscope, and images were captured using a Lumenera CCD camera and in-house developed software. PI and NAM fluorescence were detected using, respectively, U-MWG2 (green long pass: 510-550 nm) and U-MNUA2 (UV band pass, 330-385 nm) filter cubes (Olympus)."}, "[3]": {"test": "Excitation spectra of NAM with -SH reagents (spectrofluorophotometer)", "format": "physicochemical", "protocol": "The excitation spectra of NAM, glutathione GSH, GSSG and DTT and combinations thereof were obtained using a spectrofluorophotometer (RF-5301 Fluorescence Spectrophotometer, Shimadzu). 10 μL NAM dissolved in DMSO (100 μg/mL) were added to 3 mL distilled water (resulting concentration of NAM; 0.33 μg/mL) in a quartz cuvette and the excitation spectrum was recorded. Likewise were the spectra of NAM (0.33 μg/mL) together with GSH (167 μg/mL), NAM (0.33 μg/mL) together with GSSG (167 μg/mL), NAM together with DTT (167 μg/mL), GSH (167 μg/mL) alone, GSSG (167 μg/mL) alone and DTT (167 μg/mL) alone recorded."}, "[4]": {"system": "MCF-7 cells", "test": "Intracellular localization of fluorescent NAM in GFP / H2B-GFP expressing cells", "format": "cell-based", "conditions": "10 μg/ml NAM", "from_the_text": "(§1) MCF-7 (ATTC HTB-22) and U2OS (ATTC HTB-96) cells were cultivated in RPMI (Invitrogen, #61870)+10% FCS (Invitrogen, #10108-165). Cells were transfected with, respectively, pEGFP-C1 (Clontech) and pBOS-H2B-GFP (Pharmingen, BD Biosciences) using Lipofectamine 2000 (Invitrogen, #11668-027) according to manufacturer's instructions. Stable cells lines expressing GFP (green fluorescent protein) or H2B-GFP (GFP N-terminally fused to histone H2B) were cultivated in, respectively, T25 flasks and in chamber slides (Nunc) to 75% confluency. Cells from T25 flasks were harvested with 0.5 ml of trypsin (Invitrogen, #25300), neutralized with 5 ml of medium (RPMI+10% FCS), stained with 10 μg/ml NAM (N-(9-acridinyl), maleimide, Sigma, #01665) prior to mounting on a microscope slide. Cells grown on chamber slides were directly stained with 10 μg/ml NAM (N-(9-acridinyl)-maleimide). Olympus IX50 was used for microscopy, and images were captured using a Lumenera CCD camera and in-house developed software. GFP and NAM fluorescence were detected using, respectively, U-MNIB3 and U-MNUA2 filter cubes (Olympus).\n(§2) Cells expression GFP or H2B-GFP were used for determining the intracellular localization of fluorescent NAM."}, "[5]": {"system": "U2OS cells", "test": "Intracellular localization of fluorescent NAM in GFP / H2B-GFP expressing cells", "format": "cell-based", "conditions": "10 μg/ml NAM", "from_the_text": "as §1, §2"}, "[6]": {"system": "S. pombe strain Eg328", "test": "NAM and propidium iodide staining of fission yeast", "format": "cell-based, Schizosaccharomyces pombe", "protocol": "S. pombe strain Eg328, h^90 smt-0 ura4-D18, (ATCC 90720; Styrkarsdottir U et al. Curr. Genet. 23: 184-186, 1993) was grown in a rotary shaker at 29° C. to a density of 1×10^7 cells/ml in EMM minimal medium (Moreno et al., Methods Enzym. 194: 795-823, 1991) supplemented with 10 mM of L-uridine (Sigma, U3750). Cells were collected by centrifuging, washed with sterile water and stained with 10 μg/ml NAM (N-(9-acridinyl)-maleimide, Sigma, #01665) and 10 μg/ml propidium iodide (Applichem, #A2261.9010) prior to mounting on a microscope slide. Olympus IX50 was used for microscopy, and images were captured using a Lumenera CCD camera and in-house developed software. Propidium iodide and NAM fluorescence were detected using, respectively, U-MWG2 and U-MNUA2 filter cubes (Olympus)."}, "[7]": {"conditions": "Akasaka et al. 1990; cited from earlier work"}},
  "data": [
    {"smiles": "O=C1C=CC(=O)N1c1c2ccccc2nc2ccccc12", "note": "[NAM, N-(9-acridinyl)maleimide]", "values": [
      {"measurement": "staining of cells by NAM versus PI", "setting": "[1]", "result": "nearly all cells in the proliferating Jurkat cell culture were stained by NAM; only exception were PI positive cells"},
      {"measurement": "staining of cells by NAM versus PI", "setting": "[2]", "result": "NAM and PI were found to complementary stain S2 cells"},
      {"measurement": "fluorescence of NAM alone", "setting": "[3]; NAM 0.33 μg/mL in distilled water, no thiol", "result": "only exhibited very weak fluorescence"},
      {"measurement": "fluorescence on mixing NAM with GSH", "setting": "[3]; NAM 0.33 μg/mL, GSH 167 μg/mL", "result": "strong synergistic effect with respect to fluorescence"},
      {"measurement": "fluorescence on mixing NAM with DTT", "setting": "[3]; NAM with DTT 167 μg/mL", "result": "strong synergistic effect with respect to fluorescence"},
      {"measurement": "intracellular localization of fluorescent NAM", "setting": "[4]; GFP-expressing cell lines", "result": "found in both the nucleus and cytosol"},
      {"measurement": "intracellular localization of fluorescent NAM", "setting": "[4]; H2B-GFP-expressing cells", "result": "found outside as well as inside the nucleus"},
      {"measurement": "intracellular localization of fluorescent NAM", "setting": "[5]; GFP-expressing cell lines", "result": "found in both the nucleus and cytosol"},
      {"measurement": "intracellular localization of fluorescent NAM", "setting": "[5]; H2B-GFP-expressing cells", "result": "found outside as well as inside the nucleus"},
      {"measurement": "intracellular localization of NAM in yeast cells", "setting": "[6]; 10 μg/ml NAM", "result": "localizes to both the nucleus and cytosol"},
      {"measurement": "staining of living and dead yeast cells by NAM", "setting": "[6]; 10 μg/ml NAM and 10 μg/ml propidium iodide", "result": "NAM stains both living and dead yeast cells"},
      {"measurement": "fluorescence of NAM upon reaction with sulfite", "setting": "[7]", "result": "fluoresces strongly"}
    ]}
  ]
}
